Test results taken from patent US20230093861A1, “RAPAMYCIN ANALOGS AS MTOR INHIBITORS” (Revolution Medicines, Inc., priority 2017, published 2023).
Like-named read-outs stand apart in the source and are kept apart here.

What was measured:
P-4E-BP1 (T37/46) = assay: Cell based AlphaLISA assay, inhibition of P-4E-BP1 (T37/46) (mTORC1 substrate phosphorylation) in MDA-MB-468 cells; conditions: Homo sapiens, AlphaLISA, two to four hours at 37° C., read-out: pIC50 for Inhibition of mTORC1 and mTORC2 Substrate Phosphorylation, P-4E-BP1-(T37/46) (converted)
Method: (§1) Cell Based AlphaLISA Assays for Determining IC50 for Inhibition of P-Akt (S473), P-4E-BP1 (T37/46), and P-P70S6K (T389) in MDA-MB-468 Cells
(§2) mTOR Kinase Cellular Assay
(§3) To measure functional activity of mTORC1 and mTORC2 in cells the phosphorylation of 4EBP1 (Thr37/46) and P70S6K (Thr389), and AKT1/2/3 (Ser473) was monitored using AlphaLisa SureFire Ultra Kits (Perkin Elmer). […] Incubations were terminated by removal of the assay buffer and addition of lysis buffer provided with the assay kit. Samples were processed according to the manufacturer's instructions. The Alpha signal from the respective phosphoproteins was measured in duplicate using a microplate reader (Envision, Perkin-Elmer or Spectramax M5, Molecular Devices). Inhibitor concentration response curves were analyzed using normalized IC50 regression curve fitting with control based normalization.

P-Akt (S473) = assay: Cell based AlphaLISA assay, inhibition of P-Akt (S473) (mTORC2 substrate phosphorylation) in MDA-MB-468 cells; conditions: Homo sapiens, AlphaLISA, two to four hours at 37° C., read-out: pIC50 for Inhibition of mTORC1 and mTORC2 Substrate Phosphorylation, p-AKT 1/2/3 -(S473) (converted)
Method: as §1, §2, §3

P-P70S6K (T389) = assay: Cell based AlphaLISA assay, inhibition of P-P70S6K (T389) (mTORC1 substrate phosphorylation) in MDA-MB-468 cells; conditions: Homo sapiens, 4 h, AlphaLISA, two to four hours at 37° C., read-out: pIC50 for Inhibition of mTORC1 and mTORC2 Substrate Phosphorylation, P-P70S6K-(T389) (converted)
Method: as §1, §2, §3

Row | SMILES | IC50 (P-4E-BP1 (T37/46); MDA-MB-468, 4 h) [nM] | IC50 (P-Akt (S473); MDA-MB-468, 4 h) [nM] | IC50 (P-P70S6K (T389)) [nM] | IC50 (P-4E-BP1 (T37/46); 4 h) [nM] | IC50 (P-Akt (S473); 4 h) [nM]
1 | CO[C@H]1C[C@@H]2CC[C@@H](C)[C@@](O)(O2)C(=O)C(=O)N2CCCC[C@H]2C(=O)O[C@H]([C@H](C)C[C@@H]2CC[C@@H](OCCCCc3cn(CCOCCOCCOCCOCCOCCOCCC(=O)NCCCCn4ncc5c(N)ncnc54)nn3)[C@H](OC)C2)CC(=O)[C@H](C)/C=C(\C)[C@@H](O)[C@@H](OC)C(=O)[C@H](C)C[C@H](C)/C=C/C=C/C=C/1C [Example 6] | > 1000 | > 1000 | < 1 | – | –
2 | CO[C@H]1C[C@@H]2CC[C@@H](C)[C@@](O)(O2)C(=O)C(=O)N2CCCC[C@H]2C(=O)O[C@H]([C@H](C)C[C@@H]2CC[C@@H](OCCCCc3cn(CCOCCOCCOCCOCCOCCOCCC(=O)NCCCCn4nc(-c5ccc6oc(N)nc6c5)c5c(N)ncnc54)nn3)[C@H](OC)C2)CC(=O)[C@H](C)/C=C(\C)[C@@H](O)[C@@H](OC)C(=O)[C@H](C)C[C@H](C)/C=C/C=C/C=C/1C [Example 3] | – | – | < 1 | < 3.16 | 3.16 to 31.6
3 | CO[C@H]1C[C@@H]2CC[C@@H](C)[C@@](O)(O2)C(=O)C(=O)N2CCCC[C@H]2C(=O)O[C@H]([C@H](C)C[C@@H]2CC[C@H](n3cc(-c4cccc(C(=O)NCCOCCOCCOCCC(=O)NCCOCCOCCOCCOCCC(=O)NCCCCn5nc(-c6cc7cc(O)ccc7[nH]6)c6c(N)ncnc65)c4)nn3)[C@H](OC)C2)CC(=O)[C@H](C)/C=C(\C)[C@@H](O)[C@@H](OC)C(=O)[C@H](C)C[C@H](C)/C=C/C=C/C=C/1C [Example 140] | 3.16 to 31.6 | 31.6 to 1000 | 1 to 10 | – | –
4 | CO/N=C1/C[C@@H]([C@H](C)C[C@@H]2CC[C@H](n3cc(COC(=O)NCCOCCOCCOCCC(=O)NCCOCCOCCC(=O)NCCCCn4nc(-c5ccc6oc(N)nc6c5)c5c(N)ncnc54)nn3)[C@H](OC)C2)OC(=O)[C@@H]2CCCCN2C(=O)C(=O)[C@]2(O)O[C@@H](CC[C@H]2C)C[C@H](OC)/C(C)=C/C=C/C=C/[C@@H](C)C[C@@H](C)C(=O)[C@H](OC)[C@H](O)/C(C)=C/[C@H]1C [Example 151] | 31.6 to 1000 | > 1000 | 10 to 1000 | – | –
5 | CO[C@H]1C[C@@H]2CC[C@@H](C)[C@@](O)(O2)C(=O)C(=O)N2CCCC[C@H]2C(=O)O[C@H]([C@H](C)C[C@@H]2CC[C@@H](OC(=O)NCc3cn(CCOCCOCCOCCOCCOCCOCCC(=O)NCCCCn4nc(-c5ccc6oc(N)nc6c5)c5c(N)ncnc54)nn3)[C@H](OC)C2)CC(=O)[C@H](C)/C=C(\C)[C@@H](O)[C@@H](OC)C(=O)[C@H](C)C[C@H](C)/C=C/C=C/C=C/1C [Example 60] | < 3.16 | 3.16 to 31.6 | < 1 | – | –
6 | CO[C@H]1C[C@@H]2CC[C@@H](C)[C@@](O)(O2)C(=O)C(=O)N2CCCC[C@H]2C(=O)O[C@H]([C@H](C)C[C@@H]2CC[C@H](n3cc(CCCC(=O)NCCOCCOCCOCCC(=O)NCCOCCOCCOCCC(=O)NCCCCn4nc(-c5ccc6oc(N)nc6c5)c5c(N)ncnc54)nn3)[C@H](OC)C2)C/C(=N/OC(C)(C)C)[C@H](C)/C=C(\C)[C@@H](O)[C@@H](OC)C(=O)[C@H](C)C[C@H](C)/C=C/C=C/C=C/1C [Example 177] | > 1000 | > 1000 | 10 to 1000 | – | –
7 | CCO[C@@H]1C[C@@H]([C@H](C)C[C@@H]2CC[C@H](n3cc(CCCC(=O)NCCOCCOCCOCCC(=O)NCCOCCOCCC(=O)NCCCCn4nc(-c5cc6cc(O)ccc6[nH]5)c5c(N)ncnc54)nn3)[C@H](OC)C2)OC(=O)[C@@H]2CCCCN2C(=O)C(=O)[C@]2(O)O[C@@H](CC[C@H]2C)C[C@H](OC)/C(C)=C/C=C/C=C/[C@@H](C)C[C@@H](C)C(=O)[C@H](OC)[C@H](O)/C(C)=C/[C@H]1C [Example 166] | > 1000 | > 1000 | > 1000 | – | –
8 | CO[C@H]1C[C@@H]2CC[C@@H](C)[C@@](O)(O2)C(=O)C(=O)N2CCCC[C@H]2C(=O)O[C@H]([C@H](C)C[C@@H]2CC[C@@H](OCc3cccc(-c4cnc(N5CCN(C(=O)CCc6cn(CCOCCOCCOCCC(=O)NCCCCn7nc(-c8ccc9oc(N)nc9c8)c8c(N)ncnc87)nn6)CC5)nc4)c3)[C@H](OC)C2)CC(=O)[C@H](C)/C=C(\C)[C@@H](O)[C@@H](OC)C(=O)[C@H](C)C[C@H](C)/C=C/C=C/C=C/1C [Example 46] | < 3.16 | 3.16 to 31.6 | < 1 | – | –
9 | CO[C@H]1C[C@@H]2CC[C@@H](C)[C@@](O)(O2)C(=O)C(=O)N2CCCC[C@H]2C(=O)O[C@H]([C@H](C)C[C@@H]2CC[C@@H](O)[C@H](OC)C2)C[C@@H](O)[C@H](C)/C=C(\C)[C@@H](O)[C@@H](OC)C(=NOCc2cn(CCOCCOCCOCCOCCOCCOCCC(=O)NCCCCn3nc(-c4ccc5oc(N)nc5c4)c4c(N)ncnc43)nn2)[C@H](C)C[C@H](C)/C=C/C=C/C=C/1C [Example 51] | 3.16 to 31.6 | 31.6 to 1000 | 1 to 10 | – | –
10 | CO[C@H]1C[C@@H]2CC[C@@H](C)[C@@](O)(O2)C(=O)C(=O)N2CCCC[C@H]2C(=O)O[C@H]([C@H](C)C[C@@H]2CC[C@@H](OCc3cccc(-c4cnc(N5CCN(Cc6cn(CCOCCOCCOCCOCCC(=O)NCCCCn7nc(-c8ccc9oc(N)nc9c8)c8c(N)ncnc87)nn6)C(CO)C5)nc4)c3)[C@H](OC)C2)CC(=O)[C@H](C)/C=C(\C)[C@@H](O)[C@@H](OC)C(=O)[C@H](C)C[C@H](C)/C=C/C=C/C=C/1C (stereo partly shown) [Example 24] | < 3.16 | 3.16 to 31.6 | < 1 | – | –
11 | CO[C@H]1C[C@@H]2CC[C@@H](C)[C@@](O)(O2)C(=O)C(=O)N2CCCC[C@H]2C(=O)O[C@H]([C@H](C)C[C@@H]2CC[C@H](n3nncc3-c3cccc(-c4cnc(N5CCN(Cc6cn(CCOCCOCCOCCOCCC(=O)NCCCCn7nc(-c8ccc9oc(N)nc9c8)c8c(N)ncnc87)nn6)C(CO)C5)nc4)c3)[C@H](OC)C2)CC(=O)[C@H](C)/C=C(\C)[C@@H](O)[C@@H](OC)C(=O)[C@H](C)C[C@H](C)/C=C/C=C/C=C/1C (stereo partly shown) [Example 33] | 3.16 to 31.6 | 3.16 to 31.6 | 1 to 10 | – | –
12 | CO[C@H]1C[C@@H]2CC[C@@H](C)[C@@](O)(O2)C(=O)C(=O)N2CCCC[C@H]2C(=O)O[C@H]([C@H](C)C[C@@H]2CC[C@H](n3cc(-c4cnc(N5CCN(c6ncc(C(=O)NCCOCCOCCC(=O)NCCCCn7nc(-c8ccc9oc(N)nc9c8)c8c(N)ncnc87)cn6)CC5)nc4)nn3)[C@H](OC)C2)CC(=O)[C@H](C)/C=C(\C)[C@@H](O)[C@@H](OC)C(=O)[C@H](C)C[C@H](C)/C=C/C=C/C=C/1C [Example 111] | 31.6 to 1000 | 31.6 to 1000 | < 1 | – | –
13 | CO[C@H]1C[C@@H]2CC[C@@H](C)[C@@](O)(O2)C(=O)C(=O)N2CCCC[C@H]2C(=O)O[C@H]([C@H](C)C[C@@H]2CC[C@@H](OCCOCc3cn(CCOCCOCCOCCOCCOCCOCCC(=O)NCCCCn4nc(-c5ccc6oc(N)nc6c5)c5c(N(C)C)ncnc54)nn3)[C@H](OC)C2)CC(=O)[C@H](C)/C=C(\C)[C@@H](O)[C@@H](OC)C(=O)[C@H](C)C[C@H](C)/C=C/C=C/C=C/1C [Example 10] | > 1000 | > 1000 | < 1 | – | –
14 | CO[C@H]1C[C@@H]2CC[C@@H](C)[C@@](O)(O2)C(=O)C(=O)N2CCCC[C@H]2C(=O)O[C@H]([C@H](C)C[C@@H]2CC[C@H](n3cc(COCCOCCOCCOCCC(=O)OCCOCCOCCOCCOCCC(=O)NCCCCn4nc(-c5ccc6oc(N)nc6c5)c5c(N)ncnc54)nn3)[C@H](OC)C2)CC(=O)C(C)/C=C(\C)[C@@H](O)[C@@H](OC)C(=O)[C@H](C)C[C@H](C)/C=C/C=C/C=C/1C (stereo in doubt) [Example 197] | 3.16 to 31.6 | 31.6 to 1000 | 1 to 10 | – | –
15 | CO[C@H]1C[C@@H]2CC[C@@H](C)[C@@](O)(O2)C(=O)C(=O)N2CCCC[C@H]2C(=O)O[C@H]([C@H](C)C[C@@H]2CC[C@@H](OCc3cccc(-c4cnc(N5CCN(Cc6cn(CCOCCOCCOCCOCCC(=O)NCCCCn7nc(-c8ccc9oc(N)nc9c8)c8c(N)ncnc87)nn6)CC5)nc4)c3)[C@H](OC)C2)CC(=O)[C@H](C)/C=C(\C)[C@@H](O)[C@@H](OC)C(=O)[C@H](C)C[C@H](C)/C=C/C=C/C=C/1C [Example 21] | < 3.16 | 3.16 to 31.6 | < 1 | – | –
16 | CO[C@@H]1C[C@H](C[C@@H](C)[C@@H]2CC(=O)[C@H](C)/C=C(\C)[C@@H](O)[C@@H](OC)C(=O)[C@H](C)C[C@H](C)/C=C/C=C/C=C(\C)[C@@H](c3ccco3)C[C@@H]3CC[C@@H](C)[C@@](O)(O3)C(=O)C(=O)N3CCCC[C@H]3C(=O)O2)CC[C@H]1OCCCCc1cn(CCOCCOCCOCCOCCOCCOCCC(=O)NCCCCn2nc(-c3ccc4oc(N)nc4c3)c3c(N)ncnc32)nn1 (stereo in doubt) [Example 19] | – | – | < 1 | – | –
